Assay [1] concerns human white adipocyte cell line. Nature of the assay: Cellular respiration in human white adipocytes. In kind it is cell-based. The following applies: 10 μM for 4 days. How it is done: Human immortalized brown and white preadipocytes were obtained from Dr. Yu-Hua Tseng (Joslin Diabetes Center, Harvard Medical School, USA). The generation of the two cell lines from human neck adipose tissue biopsies and immortalization was performed as previously described but from a different donor. Cells were cultured in high glucose DMEM supplemented with 10% FBS and antibiotics. Two days after reaching confluence, cells were treated with 30 μM biotin, 500 nM insulin, 17 μM pantothenate, 100 nM dexamethasone, 2 nM 3,3′,5-Triiodo-L-thyronine, 500 μM IBMX, 30 μM indomethacin and 1 μM rosiglitazone, for 12 days. […]
Cellular respiration was measured using a Seahorse XF24 or XF96 analyzer (Agilent) following known protocols Immortalized brown adipocytes were differentiated in 6-well plates and replated in the Seahorse XF24 plates at a density of 50,000 cells per well using trypsin and collagenase type II. […] Oxygen consumption rates were measured before and after the sequential injection of 1 μM oligomycin, 1 μM FCCP, and 0.5 μM rotenone/antimycin A. For these cells, results were normalized to cell count determined by nuclei fluorescent staining with Hoescht staining imaged on Cytation 5 Imaging Reader and analysis with Gen5 software (BioTek). […] Maximal respiration was determined after FCCP injection.

In a further assay the target is T1, AKAP1 (Mus musculus, UniProt O08715).
T1 construct: from tissue; host or cells: mouse brown adipose tissue (BAT) lysate; also mouse brown adipocyte extracts
T1 sequence (O08715 30-857): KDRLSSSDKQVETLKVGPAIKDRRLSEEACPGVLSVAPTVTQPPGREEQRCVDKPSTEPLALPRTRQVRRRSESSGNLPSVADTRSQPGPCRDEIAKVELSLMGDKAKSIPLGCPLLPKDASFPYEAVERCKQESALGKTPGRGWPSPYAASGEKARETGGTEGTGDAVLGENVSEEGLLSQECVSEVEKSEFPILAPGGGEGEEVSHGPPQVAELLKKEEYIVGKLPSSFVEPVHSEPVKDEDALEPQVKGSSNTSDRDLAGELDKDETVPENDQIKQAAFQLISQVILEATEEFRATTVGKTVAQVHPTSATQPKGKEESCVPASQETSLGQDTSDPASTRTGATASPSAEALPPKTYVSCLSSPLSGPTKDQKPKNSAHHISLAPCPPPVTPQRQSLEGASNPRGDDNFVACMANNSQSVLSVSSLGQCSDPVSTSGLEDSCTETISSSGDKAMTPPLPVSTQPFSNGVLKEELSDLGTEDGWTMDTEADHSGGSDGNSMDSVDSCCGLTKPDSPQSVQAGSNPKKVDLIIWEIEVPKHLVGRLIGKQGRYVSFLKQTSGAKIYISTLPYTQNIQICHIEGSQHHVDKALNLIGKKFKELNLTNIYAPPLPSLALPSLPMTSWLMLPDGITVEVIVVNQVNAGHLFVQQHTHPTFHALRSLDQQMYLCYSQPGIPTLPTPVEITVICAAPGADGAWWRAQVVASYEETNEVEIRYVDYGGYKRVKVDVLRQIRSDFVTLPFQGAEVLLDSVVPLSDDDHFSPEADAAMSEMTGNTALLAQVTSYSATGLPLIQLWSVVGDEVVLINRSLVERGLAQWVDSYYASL
Nature of the assay: Cellular Thermal Shift Assay (CETSA) in brown adipocytes, AKAP1. It is filed as binding. The following applies: 10 μM for 8 h, heated at 55.8-63.3° C. How it is done:
CETSA assays were performed according to known methods. Briefly, differentiated brown adipocytes (one 10 cm dish per treatment) were treated with vehicle or compounds, trypsinized, counted, and re-suspended in approximately 450 μl PBS containing protease inhibitors (volumes were adjusted to have the same number of cells in each treatment). For each sample, 18 μl was distributed into each of 7 PCR tubes. Samples were heated using a thermocycler with a temperature gradient (iCycler, Biorad) for 3 min, followed by 3 min at room temperature, and then snap-frozen in liquid N2. After two freeze-thaw cycles, samples were centrifuged at 20,000 g for 15 min at 4° C., and the supernatants were transferred to another set of tubes. Proteins were analyzed by immunoblotting.
The PKA tetramer consists of two catalytic and two regulatory subunits. In the mouse, these are catalytic subunits C-α and C-β, and regulatory subunits RI and RII, each with α and β isoforms (RI-α, RI-β, RII-α, RII-β). […]
The potential interaction of Z160 with PKA subunits and AKAPs was assessed first by identifying which PKA subunits and AKAP isoforms are normally present in BAT. […] To perform the CETSA assays, cultured brown adipocytes were incubated with 10 μM Z160 for 8 h, after which the thermal shift was analyzed by Western blot.

This is an account of results in US12661355B2, “Compounds and methods for inducing UCP1 expression” (The Regents of the University of California, priority 2020, dated 2026).

In the case of `COc1ccc(NC(=O)CSc2nc3ccccc3c(=O)[nH]2)c(OC)c1` [Z160], in assay [1], the maximal respiration result is on record as “increased” and the “mitochondrial respiration (uncoupled)” value was “increased”. Also, the “heat stability of AKAP1” value on AKAP1 is “increased the heat stability”.
